According to ChEMBL document CHEMBL4411303, “Synthesis of tetrazole derivatives bearing pyrrolidine scaffold and evaluation of their antifungal activity against Candida albicans” (Eur J Med Chem, 2019):
Values after ≈ are worked out from the molar mass of the structure shown. Active and inactive are the calls of the source. No cut-off for these calls is given here.

Columns and labels:
Candida albicans [1] = assay: Antifungal activity against Candida albicans ATCC 90028 assessed as planktonic growth inhibition at 1.3 uM after 48 hrs by M27-A3 protocol based method relative to control; type: functional; conditions: ATCC 90028, 48 h, read-out: GI
Candida albicans [2] = assay: Antibiofilm activity against Candida albicans ATCC 90028 assessed as inhibition of biofilm formation after 24 hrs by XTT assay; type: functional, organism-based; conditions: ATCC 90028, 24 h
Candida albicans [3] = assay: Antifungal activity against Candida albicans ATCC 90028 assessed as planktonic growth inhibition at 0.65 uM after 48 hrs by M27-A3 protocol based method relative to control; type: functional; conditions: ATCC 90028, 48 h, read-out: GI
[4] = Toxicity in Galleria mellonella larvae assessed as cocoon formation at 41.47 uM measured after 18 hrs (reference value: 60 +/- 20%)
Candida albicans [5] = assay: Induction of Candida albicans ATCC 90028 internalization in mouse RAW264.7 cells assessed as reduction in fungus-induced cell damage by measuring live and early apoptotic cells at 41.47 uM after 2 hrs acridine orange/ethidium bromide staining based confocal scanning microscopic analysis; type: functional, organism-based
Candida albicans [6] = assay: Antifungal activity against Candida albicans ATCC 90028 assessed as planktonic growth inhibition at 20.73 uM after 48 hrs by M27-A3 protocol based method relative to control; type: functional; conditions: ATCC 90028, 48 h, read-out: GI
Candida albicans [7] = assay: Antifungal activity against Candida albicans ATCC 90028 assessed as reduction in cell growth after 48 to 72 hrs by M27-A3 protocol based method; type: functional
Candida albicans [8] = assay: Antifungal activity against Candida albicans ATCC 90028 assessed as planktonic growth inhibition at 0.08 uM after 48 hrs by M27-A3 protocol based method relative to control; type: functional; conditions: ATCC 90028, 48 h, read-out: GI
[9] = Selectivity index, ratio of CC50 for African green monkey Vero cells to IC50 for Candida albicans ATCC 90028; type: toxicity; conditions: read-out: Ratio CC50/IC50
[10] = Toxicity in Galleria mellonella larvae assessed as survival rate at 41.47 uM measured after 18 hrs (reference value: 100%)
[11] = Toxicity in Galleria mellonella larvae assessed as movement melanization at 41.47 uM measured after 48 hrs (reference value: 0%)
Candida albicans [12] = assay: Fungicidal activity against Candida albicans ATCC 90028 assessed as log reduction in fungal load incubated for 48 hrs followed by replating on sabouraud dextrose agar plate and measured after 48 hrs; type: functional
[13] = Toxicity in Galleria mellonella larvae assessed as movement melanization at 41.47 uM measured after 128 hrs (reference value: 0%)
Candida albicans [14] = assay: Antifungal activity against Candida albicans ATCC 90028 assessed as planktonic growth inhibition at 0.32 uM after 48 hrs by M27-A3 protocol based method relative to control; type: functional; conditions: ATCC 90028, 48 h, read-out: GI
[15] = Toxicity in Galleria mellonella larvae assessed as movement melanization at 41.47 uM measured after 18 hrs (reference value: 0%)
Candida albicans [16] = assay: Antifungal activity against Candida albicans ATCC 90028 assessed as planktonic growth inhibition at 41.47 uM after 48 hrs by M27-A3 protocol based method relative to control; type: functional; conditions: ATCC 90028, 48 h, read-out: GI
Candida albicans [17] = assay: Antifungal activity against Candida albicans ATCC 90028 assessed as planktonic growth inhibition at 0.16 uM after 48 hrs by M27-A3 protocol based method relative to control; type: functional; conditions: ATCC 90028, 48 h, read-out: GI
Candida albicans [18] = assay: Inhibition of Candida albicans ATCC 90028 cell adhesion to human TR146 cells at reduction in cell adherence at 41.47 uM relative to control; type: functional; conditions: ATCC 90028, TR146
Candida albicans [19] = assay: Antifungal activity against Candida albicans ATCC 90028 assessed as planktonic growth inhibition at 10.37 uM after 48 hrs by M27-A3 protocol based method relative to control; type: functional; conditions: ATCC 90028, 48 h, read-out: GI
Candida albicans [20] = assay: Antifungal activity against Candida albicans ATCC 90028 assessed as reduction in cell growth after 48 to 72 hrs in presence of ergosterol by M27-A3 protocol based method; type: functional
Candida albicans [21] = assay: Cell cycle arrest in Candida albicans ATCC 90028 assessed as accumulation at G0/G1-phase by propidium iodide staining based flow cytometry; type: functional, organism-based
Candida albicans [22] = assay: Antifungal activity against Candida albicans ATCC 90028 assessed as planktonic growth inhibition at 5.18 uM after 48 hrs by M27-A3 protocol based method relative to control; type: functional; conditions: ATCC 90028, 48 h, read-out: GI
[23] = Toxicity in Galleria mellonella larvae assessed as cocoon formation at 41.47 uM measured after 48 hrs (reference value: 85 +/- 5%)
[24] = Toxicity in Galleria mellonella larvae assessed as cocoon formation at 41.47 uM measured after 48 hrs (reference value: 100 +/- 0%)
Candida albicans [25] = assay: Induction of reactive oxygen species generation in Candida albicans ATCC 90028 assessed as ROS level at 41.47 uM after 18 hrs by DCFDA probe based flow cytometry (reference value: 0.3%); type: functional
[26] = Toxicity in Galleria mellonella larvae assessed as survival rate at 41.47 uM measured after 120 hrs (reference value: 100%)
[27] = Toxicity in Galleria mellonella larvae assessed as survival rate at 41.47 uM measured after 48 hrs (reference value: 100%)
Candida albicans [28] = assay: Antifungal activity against Candida albicans ATCC 90028 assessed as planktonic growth inhibition at 2.59 uM after 48 hrs by M27-A3 protocol based method relative to control; type: functional; conditions: ATCC 90028, 48 h, read-out: GI

Work on `Fc1ccc(C2CCCN2CCCn2nnc(-c3ccc(Cl)cc3)n2)cc1` (stereo not drawn) yielded an inhibition of growth at 1.3 µM (Candida albicans [1]) of 99.2%, an IC50 (Candida albicans [2]) of 10.4 µM and an inhibition of growth at 0.65 µM (Candida albicans [3]) of 99.4%. For the same compound, the Activity [4] was 60%, the Activity (Candida albicans [5]) was “Active” and the inhibition of growth at 20.73 µM (Candida albicans [6]) was 98.9%. It also gave an MIC (Candida albicans [7]) of 10.4 µM (≈ 4 µg/mL), an inhibition of growth at 0.08 µM (Candida albicans [8]) of 99.4% and a selectivity ratio [9] of 2. For the same compound, the survival at 18 h, 41.47 µM [10] was 100%, the Activity [11] was 0% and the “log(activity)” value (Candida albicans [12]) was -0.2. It also gave an Activity [13] of 13%, an inhibition of growth at 0.32 µM (Candida albicans [14]) of 99.4% and an Activity [15] of 0%. The inhibition of growth at 41.47 µM (Candida albicans [16]) was 99%, the inhibition of growth at 0.16 µM (Candida albicans [17]) was 99.4% and the inhibition at 41.47 µM (Candida albicans [18]) was > 95%. The inhibition of growth at 10.37 µM (Candida albicans [19]) was 99.1%, the MIC (Candida albicans [20]) was 20.7 µM and the Activity (Candida albicans [21]) was “Active”. The inhibition of growth at 5.18 µM (Candida albicans [22]) was 99.4%, the Activity [23] was 80% and the Activity [24] was 80%. For the same compound, the Activity (Candida albicans [25]) was 12 - 16%, the survival at 120 h, 41.47 µM [26] was 83% and the survival at 48 h, 41.47 µM [27] was 100%. It also gave an inhibition of growth at 2.59 µM (Candida albicans [28]) of 99.5%.
